Type in all cases: cell-based
In experiment [1] the test system is Protein cereblon/Androgen receptor (Homo sapiens), P10275+Q96SW2 [UNDEFINED MUTATION]. Put plainly: PROTAC activity at CRBN/Androgen receptor splice variant 7 in human VCaP cells assessed as induction of AR-V7 degradation at 0.01 uM incubated for 24 hrs by Western blot analysis relative to control. Background: In western blotting, separated proteins are transferred to a membrane and probed.

For experiment [2], the target named is T1, Protein cereblon/Androgen receptor (Homo sapiens, UniProt P10275+Q96SW2). Put plainly: PROTAC activity at CRBN/AR in human 22Rv1 cells assessed as induction of AR degradation at 0.1 uM incubated for 24 hrs by Western blot analysis relative to control.
T1 sequence (P10275 whole entry, looked up, canonical isoform): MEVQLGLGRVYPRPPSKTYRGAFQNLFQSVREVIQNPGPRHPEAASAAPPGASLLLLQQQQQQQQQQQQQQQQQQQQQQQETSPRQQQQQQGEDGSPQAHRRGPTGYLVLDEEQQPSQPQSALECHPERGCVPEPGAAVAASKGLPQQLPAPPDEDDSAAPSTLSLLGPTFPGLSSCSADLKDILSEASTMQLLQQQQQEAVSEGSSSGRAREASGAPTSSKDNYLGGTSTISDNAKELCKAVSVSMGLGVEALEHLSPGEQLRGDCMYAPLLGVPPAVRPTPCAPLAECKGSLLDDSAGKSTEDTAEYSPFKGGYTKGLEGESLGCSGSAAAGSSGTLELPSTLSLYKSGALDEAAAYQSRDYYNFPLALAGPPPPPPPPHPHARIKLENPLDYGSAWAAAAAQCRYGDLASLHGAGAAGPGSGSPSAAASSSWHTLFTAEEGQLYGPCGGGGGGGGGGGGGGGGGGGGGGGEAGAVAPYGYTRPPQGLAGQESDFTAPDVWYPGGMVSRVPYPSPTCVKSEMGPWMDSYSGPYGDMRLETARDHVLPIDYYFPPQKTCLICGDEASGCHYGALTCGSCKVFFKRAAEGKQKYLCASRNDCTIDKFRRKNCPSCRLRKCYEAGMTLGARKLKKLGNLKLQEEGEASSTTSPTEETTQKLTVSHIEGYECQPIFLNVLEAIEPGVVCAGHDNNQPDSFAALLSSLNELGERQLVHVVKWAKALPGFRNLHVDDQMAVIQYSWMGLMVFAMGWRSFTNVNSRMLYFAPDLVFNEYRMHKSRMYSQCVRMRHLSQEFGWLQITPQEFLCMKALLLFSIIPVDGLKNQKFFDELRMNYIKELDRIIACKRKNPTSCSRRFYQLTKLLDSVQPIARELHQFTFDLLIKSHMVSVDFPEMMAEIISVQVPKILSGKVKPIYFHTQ
T1 sequence (Q96SW2 whole entry, looked up, canonical isoform): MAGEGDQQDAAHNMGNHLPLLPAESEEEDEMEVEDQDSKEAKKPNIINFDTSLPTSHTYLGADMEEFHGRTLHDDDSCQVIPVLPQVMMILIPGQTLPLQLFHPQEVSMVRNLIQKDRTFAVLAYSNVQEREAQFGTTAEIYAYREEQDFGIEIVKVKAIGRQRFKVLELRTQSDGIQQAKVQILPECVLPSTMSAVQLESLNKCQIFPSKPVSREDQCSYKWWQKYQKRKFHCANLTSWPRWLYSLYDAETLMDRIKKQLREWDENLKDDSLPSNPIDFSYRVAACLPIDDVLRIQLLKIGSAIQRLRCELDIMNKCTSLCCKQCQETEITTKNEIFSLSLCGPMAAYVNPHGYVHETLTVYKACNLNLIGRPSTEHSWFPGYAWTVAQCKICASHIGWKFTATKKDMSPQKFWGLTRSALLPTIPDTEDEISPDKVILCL
The subject of experiment [3] is Protein cereblon/Androgen receptor (Homo sapiens), P10275+Q96SW2 [UNDEFINED MUTATION]. Put plainly: PROTAC activity at CRBN/Androgen receptor splice variant 7 in human 22Rv1 cells assessed as induction of AR-V7 degradation at 0.1 uM incubated for 24 hrs by Western blot analysis relative to control.
Experiment [4] shares this test system. Put plainly: PROTAC activity at CRBN/Androgen receptor splice variant 7 in human 22Rv1 cells assessed as induction of AR-V7 degradation at 0.01 uM incubated for 24 hrs by Western blot analysis relative to control.
Experiment [5] has as its target T1, Protein cereblon/Androgen receptor. Put plainly: PROTAC activity at CRBN/AR in human 22Rv1 cells assessed as induction of AR degradation at 0.01 uM incubated for 24 hrs by Western blot analysis relative to control.
Experiment [6] concerns Protein cereblon/Androgen receptor (Homo sapiens), P10275+Q96SW2 [UNDEFINED MUTATION]. Put plainly: PROTAC activity at CRBN/Androgen receptor splice variant 7 in human VCaP cells assessed as induction of AR-V7 degradation at 0.1 uM incubated for 24 hrs by Western blot analysis relative to control.
Experiment [7] concerns the target T1, Protein cereblon/Androgen receptor. Put plainly: PROTAC activity at CRBN/AR in human VCaP cells assessed as induction of AR degradation at 0.1 uM incubated for 24 hrs by Western blot analysis relative to control.
Experiment [8] deals with T2, Protein cereblon/Eukaryotic peptide chain release factor GTP-binding subunit ERF3A (Homo sapiens, UniProt Q96SW2+P15170). Put plainly: Molecular glue activity at CRBN/GSPT1 in human 22Rv1 cells assessed as induction of GSPT1 degradation at 0.01 uM incubated for 24 hrs by Western blot analysis relative to control.
T2 sequence (P15170 whole entry, looked up): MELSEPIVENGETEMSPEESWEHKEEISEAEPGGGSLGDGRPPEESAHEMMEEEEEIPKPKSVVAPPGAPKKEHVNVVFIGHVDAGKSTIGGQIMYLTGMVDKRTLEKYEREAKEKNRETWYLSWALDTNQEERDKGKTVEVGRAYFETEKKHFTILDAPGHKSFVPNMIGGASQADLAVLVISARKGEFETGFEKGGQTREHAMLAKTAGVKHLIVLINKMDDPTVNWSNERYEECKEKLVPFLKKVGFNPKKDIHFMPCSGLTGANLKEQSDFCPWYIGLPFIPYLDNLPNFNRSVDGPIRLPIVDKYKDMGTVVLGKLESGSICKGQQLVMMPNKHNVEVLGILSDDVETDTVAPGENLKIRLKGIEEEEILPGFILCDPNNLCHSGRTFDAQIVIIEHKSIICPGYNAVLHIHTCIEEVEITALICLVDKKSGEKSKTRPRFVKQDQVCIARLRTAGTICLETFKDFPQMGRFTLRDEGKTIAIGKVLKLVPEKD
T2 sequence (Q96SW2 whole entry, looked up): as the sequence (Q96SW2 whole entry, looked up, canonical isoform) above
The target in experiment [9] is T2, Protein cereblon/Eukaryotic peptide chain release factor GTP-binding subunit ERF3A. Put plainly: Molecular glue activity at CRBN/GSPT1 in human 22Rv1 cells assessed as induction of GSPT1 degradation at 0.1 uM incubated for 24 hrs by Western blot analysis relative to control.
In experiment [10] the target is T1, Protein cereblon/Androgen receptor. Put plainly: PROTAC activity at CRBN/AR in human VCaP cells assessed as induction of AR degradation at 0.01 uM incubated for 24 hrs by Western blot analysis relative to control.
Experiment [11] has as its target T2, Protein cereblon/Eukaryotic peptide chain release factor GTP-binding subunit ERF3A. Kind of experiment: Molecular glue activity at CRBN/GSPT1 in human 22Rv1 cells assessed as induction of GSPT1 degradation at 1 uM incubated for 24 hrs by Western blot analysis relative to control.
Experiment [12] deals with Protein cereblon/Androgen receptor (Homo sapiens), P10275+Q96SW2 [UNDEFINED MUTATION]. Put plainly: PROTAC activity at CRBN/Androgen receptor splice variant 7 in human 22Rv1 cells assessed as induction of AR-V7 degradation at 5 uM incubated for 24 hrs by Western blot analysis relative to control.
Experiment [13] has the same test system. Put plainly: PROTAC activity at CRBN/Androgen receptor splice variant 7 in human 22Rv1 cells assessed as induction of AR-V7 degradation at 1 uM incubated for 24 hrs by Western blot analysis relative to control.
Experiment [14] has as its target T1, Protein cereblon/Androgen receptor. Kind of experiment: PROTAC activity at CRBN/AR in human 22Rv1 cells assessed as induction of AR degradation at 1 uM incubated for 24 hrs by Western blot analysis relative to control.
The test system of experiment [15] is Protein cereblon/Androgen receptor (Homo sapiens), P10275+Q96SW2 [UNDEFINED MUTATION]. Kind of experiment: PROTAC activity at CRBN/Androgen receptor splice variant 7 in human VCaP cells assessed as induction of AR-V7 degradation at 1 uM incubated for 24 hrs by Western blot analysis relative to control.
The target in experiment [16] is T2, Protein cereblon/Eukaryotic peptide chain release factor GTP-binding subunit ERF3A. Put plainly: Molecular glue activity at CRBN/GSPT1 in human 22Rv1 cells assessed as induction of GSPT1 degradation at 5 uM incubated for 24 hrs by Western blot analysis relative to control.
Experiment [17] addresses T1, Protein cereblon/Androgen receptor. Kind of experiment: PROTAC activity at CRBN/AR in human VCaP cells assessed as induction of AR degradation at 5 uM incubated for 24 hrs by Western blot analysis relative to control.
In experiment [18] the test system is Protein cereblon/Androgen receptor (Homo sapiens), P10275+Q96SW2 [UNDEFINED MUTATION]. Put plainly: PROTAC activity at CRBN/Androgen receptor splice variant 7 in human VCaP cells assessed as induction of AR-V7 degradation at 5 uM incubated for 24 hrs by Western blot analysis relative to control.
Experiment [19] concerns the target T1, Protein cereblon/Androgen receptor. Kind of experiment: PROTAC activity at CRBN/AR in human VCaP cells assessed as induction of AR degradation at 1 uM incubated for 24 hrs by Western blot analysis relative to control.
The target is the same in experiment [20]. Put plainly: PROTAC activity at CRBN/AR in human 22Rv1 cells assessed as induction of AR degradation at 5 uM incubated for 24 hrs by Western blot analysis relative to control.

Chain of Protein cereblon/Androgen receptor (Homo sapiens), P10275+Q96SW2 [UNDEFINED MUTATION] (P10275 whole entry, looked up, stated change not applied, canonical isoform): as the sequence (P10275 whole entry, looked up, canonical isoform) above
Chain of Protein cereblon/Androgen receptor (Homo sapiens), P10275+Q96SW2 [UNDEFINED MUTATION] (Q96SW2 whole entry, looked up, stated change not applied, canonical isoform): as the sequence (Q96SW2 whole entry, looked up, canonical isoform) above

Consider `CC(C)(c1ccc(OCC2CCN(S(C)(=O)=O)CC2)cc1)c1cc(Cl)c(OCC2CCN(C(=O)CCCCCNc3ccc4c(c3)C(=O)N(C3CCC(=O)NC3=O)C4=O)CC2)c(C#N)c1` (stereo not given), for which the Activity in [1] is less than 5%; in [2], 78%; in experiment [3], 71.9%; in [4], 70.6%; in experiment [5], 71.5%; in experiment [6], 40.6%. For the same molecule, the Activity in experiment [7] was 34.5%; in experiment [8], 95.6%; in [9] it was 96.7%; in experiment [10], less than 5%.
`CC(C)(c1ccc(OCC2CN(S(C)(=O)=O)C2)cc1)c1cc(Cl)c(OCC2CCN(C(=O)CCCCCNc3ccc4c(c3)C(=O)N(C3CCC(=O)NC3=O)C4=O)CC2)c(C#N)c1` (stereo not given): the Activity in [1] is less than 5%; in experiment [2], 78.3%; in experiment [3], 81.2%; in experiment [4], 73.9%; in experiment [5], 51.3%; in experiment [6] it was 48%. The Activity in experiment [7] is 75.6%; in [8] it was 93.2%; in experiment [9] it was 96.8%; in [10], 53.6%.
For the molecule `CC(C)(c1ccc(OCc2cncnc2)cc1)c1cc(Cl)c(OCC2CCN(C(=O)CCCCCNc3ccc4c(c3)C(=O)N(C3CCC(=O)NC3=O)C4=O)CC2)c(C#N)c1` (stereo not given), the Activity in experiment [1] is 84.2%; in [2], 85.7%; in experiment [3], 74.7%; in [4] it was 75.2%; in experiment [5], 80.3%; in experiment [6], 94%. The Activity in experiment [7] was 74.7%; in experiment [8], 97.6%; in experiment [9], 97.5%; in experiment [10] it was 72.4%.
With `CC(C)(c1ccc(OCc2ccccc2)cc1)c1cc(Cl)c(OCC2CCN(C(=O)CCCCCNc3ccc4c(c3)C(=O)N(C3CCC(=O)NC3=O)C4=O)CC2)c(C#N)c1` (stereo not given), the Activity in [1] was less than 5%; in experiment [2] it was 50.1%; in experiment [3], 58.5%; in [4], less than 5%; in [5] it was less than 5%; in [6] it was 21.1%. The Activity was 21.7% in [7], 81.5% in experiment [8], 97.3% in experiment [9] and less than 5% in experiment [10].
`CC(C)(c1ccc(OCC2CCOCC2)cc1)c1cc(Cl)c(OCC2CCN(C(=O)CCCCCNc3ccc4c(c3)C(=O)N(C3CCC(=O)NC3=O)C4=O)CC2)c(C#N)c1` (stereo not given): the Activity in [1] is less than 5%; in [2], 79.3%; in experiment [3], 83.9%; in experiment [4], 68.5%; in experiment [5], 48%; in experiment [6] it was less than 5%. The Activity in experiment [7] was 63%; in experiment [8], 93.6%; in [9], 96.1%; in [10], less than 5%.
For `CC(C)(c1ccc(OCCCCl)cc1)c1ccc(OCC2CCN(C(=O)CCCCCNc3ccc4c(c3)C(=O)N(C3CCC(=O)NC3=O)C4=O)CC2)cc1` (stereo not given), the Activity in experiment [1] was less than 5%; in experiment [2], 30%; in [3], 5.1%; in experiment [4], less than 5%; in [5] it was 13.9%; in experiment [6] it was 28.6%. For the same molecule, the Activity was less than 5% in experiment [7], 37.3% in experiment [8], 92.8% in [9] and less than 5% in [10].
On to `CC1(COc2ccc(C(C)(C)c3cc(Cl)c(OCC4CCN(C(=O)CCCCCNc5ccc6c(c5)C(=O)N(C5CCC(=O)NC5=O)C6=O)CC4)c(C#N)c3)cc2)COC1` (stereo not given), for which the Activity turned out to be 49.5% in experiment [1]; 80.8% in experiment [2]; 75% in experiment [3]; 68.6% in experiment [4]; 66.4% in experiment [5]; 29.8% in experiment [6]. The Activity in experiment [7] is 78.1%; in [8], 95.3%; in [9] it was 96.1%; in [10] it was 78.7%.
Turning to `CC(C)(c1ccc(OCC2CCN(C(=O)CCCCCNc3ccc4c(c3)C(=O)N(C3CCC(=O)NC3=O)C4=O)CC2)cc1)c1ccc(OC[C@H](O)CCl)cc1` (stereo not given in full), the Activity in [1] came out at 49.9%; in experiment [2], 77.4%; in experiment [11], 94.5%; in experiment [3] it was 53.2%; in experiment [4], 32.8%; in experiment [5] it was 31.4%. Further, the Activity was 63.6% in [12]; 80.7% in experiment [6]; 54.1% in [13]; 69.8% in experiment [14]; 46% in experiment [15]; 95.1% in [16]. For the same molecule, the Activity worked out at 92.2% in experiment [7]; 50.8% in [17]; 80.3% in [8]; 42% in experiment [18]; 94.2% in [9]; 17.1% in experiment [10]. Further, the figures for the Activity in experiment [19] and in [20] were 42.5% and 75%, respectively.
Turning to `COc1ccc(C(C)(C)c2cc(Cl)c(OCC3CCN(C(=O)CCCCCNc4ccc5c(c4)C(=O)N(C4CCC(=O)NC4=O)C5=O)CC3)c(Cl)c2)cc1` (stereo not given), the Activity in [1] is less than 5%; in experiment [2] it was 72.9%; in [3], 57.3%; in experiment [4], 11.5%; in experiment [5] it was 39.7%; in experiment [6], 69.1%. Besides, the Activity is 69.8% in [7], 72.9% in experiment [8], 93.3% in [9] and less than 5% in experiment [10].
With `COc1ccc(C(C)(C)c2cc(Cl)c(OCC3CCN(C(=O)CCCCCNc4ccc(C(=O)N[C@H]5CCC(=O)NC5=O)c(F)c4)CC3)c(C#N)c2)cc1`, the Activity in [1] is less than 5%; in experiment [2], less than 5%; in experiment [3] it was less than 5%; in experiment [4], 14.5%; in experiment [5], 23.9%; in experiment [6] it was less than 5%. In addition, the Activity was less than 5% in experiment [7], less than 5% in experiment [8], less than 5% in experiment [9] and 15.7% in experiment [10].
With `CC(C)(c1ccc(OCC2COC2)cc1)c1cc(Cl)c(OCC2CCN(C(=O)CCCCCNc3ccc4c(c3)C(=O)N(C3CCC(=O)NC3=O)C4=O)CC2)c(C#N)c1` (stereo not given), the Activity in [1] stood at 34.8%; in experiment [2], 67.1%; in experiment [3], 71%; in experiment [4] it was 64.2%; in experiment [5], 78.3%; in experiment [6] it was 27.8%. Moreover, the Activity was 81.2% in [7], 96.8% in [8], 96.5% in [9] and 82.5% in [10].

The values above are taken from ChEMBL document CHEMBL6177998, “Rational Design of Dual Degraders by Incorporating Molecular Glue Structural Features into PROTAC Degraders” (J Med Chem, 2025).
